In general, logD refers to lipophilicity at a set pH, counting ionised and neutral species. A high value points to higher lipophilicity.

Each structure is given as a SMILES string. Converted amounts (≈) assume the structure as drawn. Read-outs that look alike come from different tables or passages of the source.

One data set relates to ATF4. The data set is described as follows: HEK-ATF4 High Content Imaging assay (prevention of Tunicamycin induced ISR; ATF4 signal ratio between nucleus and cytoplasm). In kind it is cell-based. Put shortly: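 Wild-type HEK293 cells in 0.3% FBS medium were co-treated with compounds and Tunicamycin (3.3 μM in prediluted medium, 11-fold over final) for 6 h at 37 °C. Fixed cells were immunostained for ATF4 with Hoechst nuclei; imaging gave nuclear/cytoplasmic ATF4 ratio, with nuclei counts as toxicity control.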

A short description of data set [1]: Thermodynamic (Equilibrium) solubility in selected buffer. The conditions noted are these: for solubility: aqueous buffer, thermodynamic from solid. The format is physicochemical. In a few lines:
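Powdered compound at 1 mg/mL target in 50 mM phosphate pH 2.0, 50 mM acetate pH 5.5 or 50 mM phosphate pH 7.4, stirred overnight at r.t. in the dark, then 0.45 μm filtered. Filtrate quantified by UPLC-UV peak area against a 0.8 mg/mL DMSO reference.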

Data set [2] deals with T1, human ERG potassium channel (hERG) (Homo sapiens, UniProt Q12809).
T1 construct: expressed in transfected cells; host or cells: HEK293, stably transfected, tetracycline-inducible promoter
T1 sequence (Q12809 whole entry): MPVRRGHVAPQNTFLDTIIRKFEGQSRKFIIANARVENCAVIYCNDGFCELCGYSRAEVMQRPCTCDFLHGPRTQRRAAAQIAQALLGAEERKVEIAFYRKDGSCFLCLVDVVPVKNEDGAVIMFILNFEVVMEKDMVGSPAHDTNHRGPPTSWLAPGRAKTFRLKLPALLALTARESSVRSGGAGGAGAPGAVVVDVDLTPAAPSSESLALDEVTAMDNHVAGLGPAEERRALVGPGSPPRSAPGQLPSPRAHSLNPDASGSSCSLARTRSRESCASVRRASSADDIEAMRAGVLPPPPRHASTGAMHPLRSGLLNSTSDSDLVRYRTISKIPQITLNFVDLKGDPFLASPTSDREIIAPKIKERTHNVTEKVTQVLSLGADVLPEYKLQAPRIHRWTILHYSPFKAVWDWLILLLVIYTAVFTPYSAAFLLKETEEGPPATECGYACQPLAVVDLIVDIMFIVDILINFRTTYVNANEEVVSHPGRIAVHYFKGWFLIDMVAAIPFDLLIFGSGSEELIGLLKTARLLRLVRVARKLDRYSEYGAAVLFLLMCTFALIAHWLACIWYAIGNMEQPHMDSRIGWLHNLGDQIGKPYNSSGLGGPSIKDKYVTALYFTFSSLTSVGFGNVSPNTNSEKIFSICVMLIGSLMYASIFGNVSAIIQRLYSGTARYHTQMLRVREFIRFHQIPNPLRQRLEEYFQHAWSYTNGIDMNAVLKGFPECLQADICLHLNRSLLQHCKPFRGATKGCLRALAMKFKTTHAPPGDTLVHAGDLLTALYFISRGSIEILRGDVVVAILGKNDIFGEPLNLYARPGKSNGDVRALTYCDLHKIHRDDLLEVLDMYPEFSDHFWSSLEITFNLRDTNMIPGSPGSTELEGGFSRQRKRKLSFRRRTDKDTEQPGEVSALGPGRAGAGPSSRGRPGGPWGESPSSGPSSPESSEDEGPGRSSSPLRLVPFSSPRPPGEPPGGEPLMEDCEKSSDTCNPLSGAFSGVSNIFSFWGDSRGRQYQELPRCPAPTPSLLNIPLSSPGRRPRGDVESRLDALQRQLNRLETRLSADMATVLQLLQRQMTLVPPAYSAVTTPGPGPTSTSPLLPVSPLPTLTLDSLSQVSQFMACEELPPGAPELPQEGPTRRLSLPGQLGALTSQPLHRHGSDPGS
The experiment in a line: hERG channel tail current recording using in vitro Rapid ICE (automated patch-clamp, QPatch HTX). In kind it is cell-based. Put shortly:
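Automated patch clamp on tetracycline-induced HEK293 hERG cells; pulse −80 to −50 mV 200 ms, +20 mV 4.8 s, −50 mV 5 s tail, extracellular pH 7.4. Compound at 0.3, 3, 30 μM (0.3% DMSO), 5 min exposure; tail current versus vehicle gives % inhibition and estimated IC50.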

Data set [3] in a line: Log D 7.4 assay (1-octanol / phosphate buffer pH 7.4). The format is physicochemical. The protocol: Phosphate buffer (1 M) was diluted to 20 mM with deionised water and adjusted to pH 7.4 (±0.05) with phosphoric acid or sodium hydroxide. A 1:1 mixture of phosphate buffer (20 mM) and 1-octanol were saturated by tumbling overnight after which time the two phases were separated. Using an automated liquid handler the following procedure was carried out: 20 mM DMSO stocks of assay and control compounds were reformatted to provide cassettes of 4 compounds per well giving a final concentration of 5 mM per compound. In duplicate 5 μL of the cassetted compounds were added to 495 μL 1-octanol (saturated with buffer) followed by 495 μL of buffer (saturated with 1-octanol) in a 96-well plate giving final incubation concentrations of 25 μM (50 μM max concentration in either layer if all compound partitioned into a single matrix). The layers were mixed by aspirating and dispensing the buffer and octanol layers into one another three times. The plate was sealed, shaken for 120 minutes and then centrifuged at 25° C. for 15 min at 4600 rpm. The 1-octanol and buffer layer were sampled separately (ensuring no cross contamination) and the respective samples diluted with 60:40 ACN:0.1 M ammonium acetate pH 7.4 (containing external standard; Sulfisoxazole, assay concentration 120 nM) to obtain final theoretical maximum concentrations of the 1-octanol layer of 0.025 μM, 0.5 μM and a buffer layer concentration of 0.5 μM. The second buffer sample was prepared by diluting the assay buffer layer with acetonitrile (containing external standard; Sulfisoxazole, assay concentration 120 nM) to give a theoretical maximum concentration of 20 μM. The analytical samples were analysed by LC-MS/MS and the Log D calculated as shown:
[formula] Where PA=Peak area and ES=External standard

Where [4] appears, read: Homo sapiens, Wild-type HEK293 cells, Tunicamycin induced ISR, 6 h, read-out: IIEK-ATF4 Activity.
Setting [5] is: acetate buffer 50 mM, pH 5.5, Table 25, read-out: Solubility (μg/mL) pH 5.5.
Where [6] appears, read: phosphate buffer 50 mM, pH 2.0, Table 25, read-out: Solubility (μg/mL) pH 2.0.
Setting [7] is: phosphate buffer 50 mM, pH 7.4, Table 25, read-out: Solubility (μg/mL) pH 7.4.
The mark [8] stands for this setting: Table 24 category key, read-out: HEK-ATF4 Activity*.
The mark [9] stands for this setting: acetate buffer 50 mM, pH 5, Table 24, read-out: Solubility (μg/mL) pH 5.
Setting [10] is: phosphate buffer 50 mM, pH 2, Table 24, read-out: Solubility (μg/mL) pH 2.
Where [11] appears, read: phosphate buffer 50 mM, pH 7.4, Table 24, read-out: Solubility (μg/mL) pH 7.4.

As to `O=C(COc1ccc(Cl)c(Cl)c1)N[C@H]1CC[C@H](c2nnc([C@H]3C[C@@H](OC(F)F)C3)o2)NC1` [Example 60, 2-(3,4-dichlorophenoxy)-N-[(3S,6R)-6-(5-[(1s,3s)-3-(difluoromethoxy)cyclobutyl]-1,3,4-oxadiazol-2-yl}piperidin-3-yl]acetamide], the IC50 in the data set with ATF4 (setting [4]) was in the range of 1 to 500 nM; in data set [2] (Table 26), 1 to 1000 nM. In addition, the solubility in data set [1] (setting [5]) is 47 µg/mL (≈ 95.7 µM); in data set [1] (setting [6]) it was 886 µg/mL (≈ 1800 µM); in data set [1] (setting [7]), 91 µg/mL (≈ 185 µM).
With `O=C(COc1ccc(Cl)c(F)c1)N[C@H]1CC[C@H](c2nnc(OC3CCC(F)(F)C3)o2)NC1` (stereo partly drawn) [Example 68, 2-(4-chloro-3-fluorophenoxy)-N-[(3S,6R)-6-{5-[(3,3-difluorocyclopentyl)oxy]-1,3,4-oxadiazol-2-yl}piperidin-3-yl]acetamide], the IC50 in the data set with ATF4 (setting [4]) is 2000 to 15000 nM; in data set [2] (Table 26), 1000 to 5000 nM. Further, the solubility in data set [1] (setting [5]) came to 168 µg/mL (≈ 354 µM); in data set [1] (setting [6]) it was 909 µg/mL (≈ 1910 µM); in data set [1] (setting [7]), 102 µg/mL (≈ 215 µM).
The matching figures for `O=C(COc1ccc(Cl)c(F)c1)N[C@H]1CC[C@H](c2nnc(OCCOC(F)F)o2)NC1` [Example 75, 2-(4-chloro-3-fluorophenoxy)-N-[(3S,6R)-6-{5-[2-(difluoromethoxy)ethoxy]-1,3,4-oxadiazol-2-yl}piperidin-3-yl]acetamide]: 1 to 500 nM, 1000 to 5000 nM, 26 µg/mL (≈ 55.9 µM), 713 µg/mL (≈ 1530 µM) and 22 µg/mL (≈ 47.3 µM).
For the compound `O=C(COc1ccc(Cl)c(F)c1)N[C@H]1CC[C@H](c2nnc(OCCOC(F)(F)F)o2)NC1` [Example 77, 2-(4-chloro-3-fluorophenoxy)-N-[(3S,6R)-6-{5-[2-(trifluoromethoxy)ethoxy]-1,3,4-oxadiazol-2-yl}piperidin-3-yl]acetamide], the IC50 with ATF4 (setting [4]) fell in the range of 1 to 500 nM; in data set [2] (Table 26), 1000 to 5000 nM. Moreover, the results for the solubility in data set [1] (setting [5]), in data set [1] (setting [6]) and in data set [1] (setting [7]) were 98 µg/mL (≈ 203 µM), 810 µg/mL (≈ 1680 µM) and 76 µg/mL (≈ 157 µM), respectively.
Consider `CC(F)(F)CCCOc1nnc([C@H]2CC[C@H](NC(=O)COc3ccc(Cl)c(F)c3)CN2)o1` [Example 84, 2-(4-chloro-3-fluorophenoxy)-N-[(3S,6R)-6-{5-[(4,4-difluoropentyl)oxy]-1,3,4-oxadiazol-2-yl}piperidin-3-yl]acetamide], for which the figures for the IC50 (in the data set with ATF4 (setting [4]); in data set [2] (Table 26)) were 1 to 500 nM and 1000 to 5000 nM, respectively. Moreover, the solubility in data set [1] (setting [5]) came to 93 µg/mL (≈ 195 µM); in data set [1] (setting [6]), 717 µg/mL (≈ 1500 µM); in data set [1] (setting [7]) it was 62 µg/mL (≈ 130 µM).
`O=C(COc1ccc(Cl)c(Cl)c1)N[C@H]1CC[C@H](c2nnc(OCCOC(F)(F)F)o2)NC1` [Example 85, 2-(3,4-dichlorophenoxy)-N-[(3S,6R)-6-{5-[2-(trifluoromethoxy)ethoxy]-1,3,4-oxadiazol-2-yl}piperidin-3-yl]acetamide]: the IC50 is 1 to 500 nM in the data set on ATF4 (setting [4]) and 1000 to 5000 nM in data set [2] (Table 26). Besides, the solubility in data set [1] (setting [5]) stood at 9 µg/mL (≈ 18 µM); in data set [1] (setting [6]) it was 918 µg/mL (≈ 1840 µM); in data set [1] (setting [7]), 6 µg/mL (≈ 12 µM).
In the case of `O=C(COc1ccc(Cl)c(F)c1)N[C@H]1CC[C@H](c2nnc(N3CC(C(F)(F)F)C3)o2)NC1` [Example 90, 2-(4-chloro-3-fluorophenoxy)-N-[(3S,6R)-6-{5-[3-(trifluoromethyl)azetidin-1-yl]-1,3,4-oxadiazol-2-yl}piperidin-3-yl]acetamide], the results for the IC50 (in the data set with ATF4 (setting [4]); in data set [2] (Table 26)) were 500 to 2000 nM and over 5000 nM, respectively. The values for the solubility in data set [1] (setting [5]) and in data set [1] (setting [7]) were 294 µg/mL (≈ 615 µM) and 173 µg/mL (≈ 362 µM), respectively. For the same compound, the “Solubility (μg/mL) pH 2.0” value in data set [1] (pH 2.0, Table 25) is recorded as “quant.^#”.
On to `O=C(COc1ccc(Cl)c(F)c1)N[C@H]1CC[C@H](c2nnc(N3CC(OC4CC4)C3)o2)NC1` [Example 95, 2-(4-chloro-3-fluorophenoxy)-N-[(3S,6R)-6-[5-(3-cyclopropoxyazetidin-1-yl)-1,3,4-oxadiazol-2-yl]piperidin-3-yl]acetamide], for which the IC50 with ATF4 (setting [4]) was in the range of 1 to 500 nM; in data set [2] (Table 26), 1000 to 5000 nM. For the same compound, the solubility turned out to be 378 µg/mL (≈ 811 µM) in data set [1] (setting [5]), 970 µg/mL (≈ 2080 µM) in data set [1] (setting [6]) and 230 µg/mL (≈ 494 µM) in data set [1] (setting [7]).
Regarding `O=C(COc1ccc(Cl)c(F)c1)N[C@H]1CC[C@H](c2noc([C@H]3C[C@@H](OC(F)(F)F)C3)n2)NC1` [Example 98, 2-(4-chloro-3-fluorophenoxy)-N-[(3S,6R)-6-{5-[(1s,3s)-3-(trifluoromethoxy)cyclobutyl]-1,2,4-oxadiazol-3-yl}piperidin-3-yl]acetamide], the IC50 with ATF4 (setting [4]) is 1 to 500 nM; in data set [2] (Table 26), 1000 to 5000 nM. The solubility in data set [1] (setting [5]) amounted to 61 µg/mL (≈ 124 µM); in data set [1] (setting [7]) it was 17 µg/mL (≈ 34.5 µM). Besides, the “Solubility (μg/mL) pH 2.0” value in data set [1] (pH 2.0, Table 25) is “quant.^#”.
As to `O=C(COc1ccc(C(F)(F)F)cc1)N[C@H]1CC[C@H](c2nnc(OCCOC(F)(F)F)o2)NC1` [Example 112, N-[(3S,6R)-6-{5-[2-(trifluoromethoxy)ethoxy]-1,3,4-oxadiazol-2-yl}piperidin-3-yl]-2-[4-(trifluoromethyl)phenoxy]acetamide], the IC50 is 1 to 500 nM in the data set on ATF4 (setting [4]) and over 5000 nM in data set [2] (Table 26). Further, the solubility amounted to 97 µg/mL (≈ 195 µM) in data set [1] (setting [5]), 812 µg/mL (≈ 1630 µM) in data set [1] (setting [6]) and 67 µg/mL (≈ 134 µM) in data set [1] (setting [7]).
Take `O=C(COc1ccc(Cl)c(F)c1)N[C@@H]1CC[C@@H](c2nnc([C@H]3C[C@@H](OC(F)(F)F)C3)o2)OC1` [WO201904 6779 Ex 1, reference compound]: the IC50 lay within 1 to 500 nM with ATF4 (setting [8]) and 1000 to 5000 nM in data set [2] (Table 24). Moreover, the solubility in data set [1] (setting [9]), in data set [1] (setting [10]) and in data set [1] (setting [11]) was under 1 µg/mL in each case. Moreover, the log distribution coefficient (logD) at 120 min in data set [3] is 3.6.
`O=C(COc1ccc(Cl)c(F)c1)N[C@@H]1CC[C@@H](c2nnc(COC(F)(F)F)o2)OC1` [WO201904 6779 Ex 30, reference compound]: the results for the IC50 (in the data set on ATF4 (setting [8]); in data set [2] (Table 24)) were 500 to 2000 nM and 1 to 1000 nM, respectively. The solubility in data set [1] (setting [9]), in data set [1] (setting [10]) and in data set [1] (setting [11]) was 3 µg/mL (≈ 6.61 µM) throughout. This compound also returned a pH-dependent lipophilicity (logD) at 120 min in data set [3] of 2.9.

The values are drawn from patent US12258338B2, “Modulators of the integrated stress response pathway” (EVOTEC INTERNATIONAL GMBH, priority 2019, dated 2025).
